The target in assay [1] is T1, serotonin 1A receptor (Rattus norvegicus, UniProt P19327).
T1 construct: To the receptor fraction of the hippocampus were added a test compound and 0.5 nM of [^3H]; 8-hydroxy-dipropylaminotetralin; from tissue; host or cells: SD rat hippocampus, membrane (receptor) fraction
T1 sequence (P19327 1-422): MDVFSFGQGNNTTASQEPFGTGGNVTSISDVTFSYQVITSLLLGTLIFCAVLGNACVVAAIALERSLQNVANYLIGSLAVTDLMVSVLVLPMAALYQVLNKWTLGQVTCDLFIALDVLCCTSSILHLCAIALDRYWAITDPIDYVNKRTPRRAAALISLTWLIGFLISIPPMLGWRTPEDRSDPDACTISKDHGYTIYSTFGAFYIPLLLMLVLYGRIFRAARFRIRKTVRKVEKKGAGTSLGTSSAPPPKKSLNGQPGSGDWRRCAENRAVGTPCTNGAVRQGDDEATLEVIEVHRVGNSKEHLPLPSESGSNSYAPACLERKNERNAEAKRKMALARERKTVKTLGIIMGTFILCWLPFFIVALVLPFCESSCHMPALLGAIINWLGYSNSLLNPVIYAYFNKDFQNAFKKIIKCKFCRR
Briefly: Binding test on [3H] 8-hydroxy-dipropylaminotetralin (serotonin 1A receptor). To be noted: [3H] 8-OH-DPAT 0.5 nM, receptor fraction of rat hippocampus; read-out: 5HT1a.

The target of assay [2] is serotonin 2 receptor (Rattus norvegicus, UniProt P14842). The assay can be described thus: Binding test on [3H] ketanserin (serotonin 2 receptor).
Chain of serotonin 2 receptor (P14842 whole entry): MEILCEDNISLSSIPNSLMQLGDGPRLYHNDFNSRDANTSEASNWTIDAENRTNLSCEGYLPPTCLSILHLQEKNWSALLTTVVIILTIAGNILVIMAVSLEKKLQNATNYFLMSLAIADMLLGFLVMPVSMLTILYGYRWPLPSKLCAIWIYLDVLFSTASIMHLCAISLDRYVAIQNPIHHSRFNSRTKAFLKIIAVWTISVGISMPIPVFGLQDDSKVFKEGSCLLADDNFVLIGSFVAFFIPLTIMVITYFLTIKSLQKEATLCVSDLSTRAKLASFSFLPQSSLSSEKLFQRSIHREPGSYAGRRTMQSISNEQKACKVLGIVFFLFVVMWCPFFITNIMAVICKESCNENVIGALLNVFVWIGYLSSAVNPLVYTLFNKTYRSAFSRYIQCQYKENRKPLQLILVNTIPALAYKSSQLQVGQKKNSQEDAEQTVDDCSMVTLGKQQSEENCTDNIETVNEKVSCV
Assay [3] deals with α1 adrenalin receptor. The assay can be described thus: Binding test on [3H] prazosin (α1 adrenalin receptor). More on the design: species or system rat.
Where [4] appears, read: [3H] ketanserin 0.3 nM, receptor fraction of rat cerebral cortex, read-out: 5HT2.
Setting [5] is: [3H] prazosin about 0.2 nM, receptor fraction of rat cerebral cortex.

Structures can show the parent of a compound that is named as a salt. Where two headings read alike, the source gives them in different places. A value given as a limit tells only on which side of the number the result lay.

For `CCNC(=O)CCc1ccc2ccn(C3CCN(CCc4ccc(F)cc4)CC3)c2c1` [Example 311, 1-[1-(4-fluorophenethyl)piperidin-4-yl]-6-[2-(ethylcarbamoyl)ethyl]indole Oxalate], the Ki in assay [1] is 0.00108 µM; in assay [2] (setting [4]), 0.0464 µM; in assay [3] (setting [5]), 0.085 µM.

With `COc1ccc2c(c1)N(C1CCCN(CCc3ccc(F)cc3)CC1)CC2` (stereo not drawn) [Example 291, 1-[1-(4-fluorophenethyl)homopiperidin-4-yl]-6-methoxyindoline], the Ki came to 0.0069 µM in assay [1], 0.101 µM in assay [2] (setting [4]) and 0.172 µM in assay [3] (setting [5]).

Consider `O=C(Cc1ccc2ccn(C3CCN(CCc4ccc(F)cc4)CC3)c2c1)NCCN1CCCC1` [Example 312, 1-[1-(4-fluorophenethyl)piperidin-4-yl]-6-[2-(pyrrolidin-1-yl)ethyl]carbamoylmethylindole Oxalate], for which the Ki worked out at 0.00827 µM in assay [1], 0.00056 µM in assay [2] (setting [4]) and 0.0533 µM in assay [3] (setting [5]).

Regarding `CS(=O)(=O)NCc1ccc(CCN2CCC(N3CCc4ccccc43)CC2)cc1` [Example 38, 1-[1-(4-methanesulfonylaminomethylphenethyl)piperidin-4-yl]indoline], the Ki in assay [1] turned out to be 0.015 µM; in assay [2] (setting [4]), 0.0218 µM; in assay [3] (setting [5]) it was 0.244 µM.

In the case of `O=C1CCCN1Cc1ccc2ccn(C3CCN(CCc4ccc(F)cc4)CC3)c2c1` [Example 358, 1-[1-(4-fluorophenethyl)piperidin-4-yl]-6-(2-pyrrolidon-1-yl)methylindole], the Ki in assay [1] turned out to be 0.00073 µM; in assay [2] (setting [4]) it was 0.014 µM; in assay [3] (setting [5]) it was 0.0418 µM.

For `CC(O)c1ccc2ccn(C3CCN(CCc4ccc(F)cc4)CC3)c2c1` (stereo not drawn) [Example 392, 1-[1-(4-fluorophenethyl)piperidin-4-yl]-6-(1-hydroxyethyl)indole Oxalate], the Ki was determined as 0.00065 µM in assay [1], 0.0381 µM in assay [2] (setting [4]) and 0.025 µM in assay [3] (setting [5]).

As to `COc1ccc2c(c1)N(C1CCN(CCc3ccc(F)cc3)C1)CC2` (stereo not drawn) [Example 292, 1-[1-(4-fluorophenethyl)pyrrolidin-3-yl]-6-methoxyindoline], the figures for the Ki in assay [1], in assay [2] (setting [4]) and in assay [3] (setting [5]) were 0.092 µM, 0.0588 µM and 0.178 µM, respectively.

As to `NC(=O)CNC(=O)Cc1ccc2ccn(C3CCN(CCc4ccc(F)cc4)CC3)c2c1` [Example 306, 1-[1-(4-fluorophenethyl)piperidin-4-yl]-6-(carbamoylmethyl)carbamoylmethylindole Oxalate], the Ki in assay [1] is 0.00282 µM; in assay [2] (setting [4]) it was 0.00387 µM; in assay [3] (setting [5]) it was 0.147 µM.

`COc1ccc(C(O)c2ccc3ccn(C4CCN(CCc5ccc(F)cc5)CC4)c3c2)cn1` (stereo not drawn) [Example 318, 1-[1-(4-fluorophenethyl)piperidin-4-yl]-6-[(2-methoxypyridin-5-yl)hydroxymethyl]indole Oxalate]: the values for the Ki in assay [1], in assay [2] (setting [4]) and in assay [3] (setting [5]) were 0.00149 µM, 0.0083 µM and 0.0466 µM, respectively.

On to `CNOOSCc1ccc2c(c1)N(C1CCN(CCc3ccc(F)cc3)CC1)CC2` [Example 164, 1-[1-(4-fluorophenethyl)piperidin-4-yl]-6-(N-methylsulfamoylmethyl)indoline], for which the results for the Ki in assay [1], in assay [2] (setting [4]) and in assay [3] (setting [5]) were 0.00054 µM, 0.0341 µM and 0.638 µM, respectively.

As to `O=C(CF)NCc1ccc2ccn(C3CCN(CCc4ccccc4F)CC3)c2c1` [Example 381, 1-[1-(2-fluorophenethyl)piperidin-4-yl]-6-fluoroacetamidomethylindole], the Ki in assay [1] came to 0.00137 µM; in assay [2] (setting [4]), 0.00202 µM; in assay [3] (setting [5]), 0.101 µM.

Consider `CC(=O)NCc1ccc2c(C#N)cn(C3CCN(CCc4ccc(F)cc4)CC3)c2c1` [Example 387, 3-cyano-1-[1-(4-fluorophenethyl)piperidin-4-yl]-6-acetamidomethylindole], for which the Ki in assay [1] was 0.0635 µM; in assay [2] (setting [4]) it was > 0.02 µM; in assay [3] (setting [5]) it was 0.0262 µM.

Take `CC(=O)NCc1ccc2ccn(C3CCN(CCc4cccnc4)CC3)c2c1` [Example 386, 1-{1-[2-(3-Pyridyl)ethyl]piperidin-4-yl}-6-acetamidomethylindole]: the figures for the Ki in assay [1], in assay [2] (setting [4]) and in assay [3] (setting [5]) were 0.00538 µM, > 0.02 µM and 0.0262 µM, respectively.

Regarding `CN(C)CC(=O)NCc1ccc2ccn(C3CCN(CCc4ccc(F)cc4)CC3)c2c1` [Example 375, 1-[1-(4-fluorophenethyl)piperidin-4-yl]-6-(N,N-dimethylaminoacetamido)methylindole], the Ki in assay [1] was 0.00156 µM; in assay [2] (setting [4]) it was 0.00337 µM; in assay [3] (setting [5]) it was 0.0614 µM.

Take “1-[1-(4-fluorophenethyl)piperidin-4-yl]-7-hydroxy-(4a,7a)-cyclohexanoindoline and 1-[1-(4-fluorophenethyl)piperidin-4-yl]-4-hydroxy-(3b,6a)-cyclohexanoindoline [Example 236]”: the Ki in assay [1] worked out at 0.0292 µM; in assay [2] (setting [4]), 0.0106 µM; in assay [3] (setting [5]) it was 0.0722 µM.

In the case of `CC(=O)NCc1ccc2ccn(C3CCN(CCCc4ccc(F)cc4)CC3)c2c1` [Example 360, 1-{1-[3-(4-fluorophenyl)propyl]-piperidin-4-yl}-6-acetamidomethylindole], the values for the Ki in assay [1], in assay [2] (setting [4]) and in assay [3] (setting [5]) were 0.0266 µM, > 0.02 µM and 0.69 µM, respectively.

With `O=C(Cc1ccc2ccn(C3CCN(CCc4ccc(F)cc4)CC3)c2c1)NCCN1CCOCC1` [Example 313, 1-[1-(4-fluorophenethyl)piperidin-4-yl]-6-[2-(morpholin-4-yl)ethyl]carbamoylmethylindole Oxalate], the figures for the Ki in assay [1], in assay [2] (setting [4]) and in assay [3] (setting [5]) were 0.0131 µM, 0.00158 µM and 0.144 µM, respectively.

As for `O=C1NCCN1Cc1ccc2ccn(C3CCN(CCc4ccc(F)cc4)CC3)c2c1` [Example 355, 1-[1-(4-fluorophenethyl)piperidin-4-yl]-6-(2-imidazolidonyl)methylindole], the figures for the Ki in assay [1], in assay [2] (setting [4]) and in assay [3] (setting [5]) were 0.00035 µM, 0.00687 µM and 0.0395 µM, respectively.

`CN(C)CCC(=O)NCc1ccc2ccn(C3CCN(CCc4ccc(F)cc4)CC3)c2c1` [Example 378, 1-[1-(4-fluorophenethyl)piperidin-4-yl]-6-(3-N,N-dimethylaminopropionyl)aminomethylindole]: the values for the Ki in assay [1], in assay [2] (setting [4]) and in assay [3] (setting [5]) were 0.0142 µM, 0.00154 µM and 0.0437 µM, respectively.

`COc1cccc(CCN2CCC(N3CCc4ccccc43)CC2)c1` [Example 19, 1-[1-(3-methoxyphenethyl)piperidin-4-yl]indoline]: the Ki turned out to be 0.0088 µM in assay [1], 0.007 µM in assay [2] (setting [4]) and 0.0555 µM in assay [3] (setting [5]).

Turning to `O=C(NCc1ccc2ccn(C3CCN(CCc4ccc(F)cc4)CC3)c2c1)n1ccnc1` [Example 368, 1-[1-(4-fluorophenethyl)piperidin-4-yl]-6-imidazocarbonylaminomethylindole], the Ki in assay [1] is 0.00163 µM; in assay [2] (setting [4]), 0.00056 µM; in assay [3] (setting [5]), 0.0376 µM.

`Fc1ccc(CCN2CCN(C3CCCc4cnccc43)CC2)cc1` (stereo not drawn) [Example 283, 5-{4-[2-(4-fluorophenyl)ethyl]piperazin-1-yl}-5,6,7,8-tetrahydroisoquinoline Hydrochloride]: the figures for the Ki in assay [1], in assay [2] (setting [4]) and in assay [3] were 0.0395 µM, 0.0409 µM and 0.197 µM, respectively.

`CC(=O)N1CCC(CNC(=O)Cc2ccc3ccn(C4CCN(CCc5ccc(F)cc5)CC4)c3c2)CC1` [Example 343, Oxalate]: the figures for the Ki in assay [1], in assay [2] and in assay [3] (setting [5]) were 0.00154 µM, 0.00164 µM and 0.0381 µM, respectively.

These data come from US6579881B2 (Eisai Co., Ltd., priority 1997, dated 2003).
